Experimental data as given in patent publication US12564575B2 (priority 2019, dated 2026).
Entries after “also recorded” stand apart in the source; their conditions may differ.

Columns and labels:
[1] = system: venom MP (Sistrurus venom metalloprotease activity); assay type: biochemical, Viper, elapid and colubrid venom; conditions: FIG. 4, Table 2; comparison of hydroxamate metalloprotease inhibitors
[2] = system: vero epithelial cells (CCL-81); experiment: ECIS study of vero epithelial cells exposed to snake venom; assay type: cell-based, African green monkey; conditions: for cellular function and cell-cell junction integrity measured by resistance: C. scutulatus whole venom (high sPLA2 content)
Streptococcus suis = experiment: Juvenile pig with Streptococcus suis infection during experimental envenoming study; assay type: in vivo, Sus domesticus; conditions: S. suis infected juvenile pig; LY315920 plus single non-curative antibiotic dose; euthanized as scheduled
LPS/OA induced ARDS = system: LPS/OA induced ARDS; parameters: species or system C57BL/6 mice; conditions: mouse, in vivo, po, 10 mg/kg
[3] = system: LPS/OA-induced lung injury and ARDS; assay type: in vivo, C57BL/6 mice

SMILES: CNC(=O)[C@@H](NC(=O)[C@H](CC(C)C)[C@H](O)C(=O)NO)C(C)(C)C [marimastat]
- potency (IC50) against venom metalloprotease activity, in words [1]: good to excellent performance

SMILES: CCc1c(C(=O)C(N)=O)c2c(OCC(=O)O)cccc2n1Cc1ccccc1 [varespladib]
- difference in response between the two varespladib doses ([2]; 0.05 mg/ml versus 0.01 mg/mL): no significant difference
- inter-cellular attachments (resistance) and cell viability (capacitance) ([2]; C. scutulatus and Daboia russelli (Pakistan) venoms, varespladib 0.05 mg/ml and 0.01 mg/mL): recovers and stabilizes inter-cellular attachments (resistance) and cell viability (capacitance)
- cellular function and cell-cell junction integrity measured by resistance [2]: preserves cellular function and cell-cell junction integrity
- survival (Streptococcus suis): > 100 h

SMILES: C[C@H](Cc1cccc(-c2cc(Cc3ccccc3)ccc2C(N)=O)c1)C(=O)O [AZD2716, (R)-3-(5′-benzyl-2′-carbamoyl-[1,1′-biphenyl]-3-yl)-2-methylpropanoic acid]
- damage from LPS/OA induced ARDS (histopathology) (LPS/OA induced ARDS): rescue and reduce damage
- cellular function and cell-cell junction integrity measured by resistance [2]: preserves cellular function and cell-cell junction integrity
- clinical appearance of treated animals ([3]; […], 24 and 48 hours, versus lethargic, tachypneic controls): bright, alert and responsive
- lung sound amplitude, distance from maximum (audiogram) ([3]; […], recordings at 24 hours, control −29.7 db): −38.5 db
- difference in lung sound amplitude between treated and untreated mice ([3]; […], treated quieter): ~10 dB
- alveolar damage (ATS workshop lung injury score) ([3]; mouse, in vivo): prevented and rescued; also recorded: protects and reduces alveolar damage
